Test results: patent US20160367537A1, “COMPOSITIONS AND METHODS FOR THE TREATMENT AND MANAGEMENT OF STEATOSIS IN HUMAN LIVER” (WAKE FOREST UNIVERSITY HEALTH SCIENCES, priority 2013, published 2016)

Tests used:
[1] = tested on: lysosomal acid lipase deficient (LAL−/−) mice; assay: Mouse model of lysosomal acid lipase deficiency, PRD125 as diet admixture; assay type: in vivo
Experimental: In the present example, hepatic lipid concentrations and content in a lysosomal acid lipase deficient (LAL^−/−) mouse model were determined in the presence and absence of selective SOAT2 inhibitors. The data are for male lysosomal acid lipase deficient mice on a FVB background. The mice were fed a chow diet for 21 days. During the subsequent 52 or 53 days, 5 mice were fed the chow diet without drug and 3 of 5 to be studied were fed a chow diet supplemented with PRD125 at a dose of 10 mg/kg/day. Animals were ex-sanguinated at 52 days and the blood plasma was collected in EDTA and frozen in liquid nitrogen. The livers, small intestine, and spleen were flushed with saline and rinsed, then also snap frozen in liquid nitrogen. All organs were weighed, and after freezing, approximately 25 mg of tissue was extracted in chloroform methanol, 2:1, for subsequent lipid determinations. Free and total cholesterol was measured enzymatically and esterified cholesterol was determined by difference. Aliquots of the terminal plasma were used for measurement of tissue enzymes.
Mice were studied starting at 21 days of age and studied for 52 to 53 days. Treatment with PRD125 was at 10 mg/kg/day and the compound was given as a diet admixture.

SOAT2 = molecular target: T1, SOAT2 (Homo sapiens, UniProt O75908); assay: Specificity for SOAT2 compared to SOAT1
T1 sequence (O75908 1-522): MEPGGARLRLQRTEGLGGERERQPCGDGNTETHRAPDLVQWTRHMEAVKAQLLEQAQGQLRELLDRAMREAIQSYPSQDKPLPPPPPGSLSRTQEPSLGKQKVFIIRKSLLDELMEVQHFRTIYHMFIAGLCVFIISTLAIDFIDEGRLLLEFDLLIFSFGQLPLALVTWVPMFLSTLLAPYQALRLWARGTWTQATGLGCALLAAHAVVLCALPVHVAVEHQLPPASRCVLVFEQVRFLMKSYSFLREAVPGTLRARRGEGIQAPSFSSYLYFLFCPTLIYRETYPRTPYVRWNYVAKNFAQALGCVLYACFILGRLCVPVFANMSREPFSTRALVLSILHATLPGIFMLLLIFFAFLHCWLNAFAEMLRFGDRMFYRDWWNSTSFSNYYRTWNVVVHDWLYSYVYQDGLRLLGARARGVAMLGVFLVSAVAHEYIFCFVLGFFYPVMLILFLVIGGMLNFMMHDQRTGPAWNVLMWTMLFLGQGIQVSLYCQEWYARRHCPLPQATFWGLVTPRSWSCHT

Stability in the diet = assay type: physicochemical; settings: diet admixture
[2] = Absorption after oral intake; settings: given in the diet

## Cc1ccccc1[C@@H]1OCC2(C)C3C[C@H](OC(=O)c4ccc(C#N)cc4)[C@@]4(C)Oc5cc(-c6cccnc6)oc(=O)c5[C@H](O)C4[C@@]3(C)CC[C@@H]2O1 (some centres unmarked) [PRD125]
[1]; LAL−/− mice, 10 mg/kg/day as diet admixture
  decrease of liver cholesterol content versus untreated mice: 65%
[1]; male LAL−/− mice, 10 mg/kg/day as diet admixture, terminal plasma
  serum enzyme levels: reduced
[1]; male LAL−/− mice, FVB background, 10 mg/kg/day as diet admixture, from 21 to 52 or 53 days of age
  liver cholesterol esters: significantly reduced
[1]; oral, does not need booster injections
  oral effectiveness: effective orally
[1]; treated LAL−/− mice, 10 mg/kg/day as diet admixture (untreated approximately 146 mg/liver)
  cholesterol content of liver: ~39 mg/liver
SOAT2
  specificity to SOAT2 compared to SOAT1: over 5000 fold
Stability in the diet
  stability in the diet: stable
[2]
  absorption: easily absorbed
